This is an account of results in article PMC11878239, “Biochemical investigations using mass spectrometry to monitor JMJD6-catalysed hydroxylation of multi-lysine containing bromodomain-derived substrates” (RSC Chemical Biology, 2025).

“Also recorded” adds a separate entry of the source.

The assay addresses T1, full-length His6-JMJD6 (Homo sapiens, UniProt Q6NYC1).
T1 construct: An enzyme mixture (10 μL) containing full-length His6-JMJD6 (5 μM; final concentration: 0.05 μM); made in house; host or cells: Escherichia coli BL21 (DE3), pET-28a(+) plasmid
The assay is described as follows: LC-MS of JMJD6-catalysed hydroxylation under 18O2 or in 18OH2. The format is biochemical. The settings on record: 2OG 2 mM, FAS 20 μM, LAA 1 mM, peptide 50 μM, Tris pH 7.5, 24 h, room temperature. The method, then:
[…] The assay solutions were transferred to a custom-made air-tight container, which was then sealed and removed from the anaerobic chamber. […] The container was evacuated and then filled with […] to a pressure of ∼700 mbar. […] The enzyme reactions were incubated for 24 h at room temperature, after which time the container was returned to the anaerobic chamber. The reactions were stopped by the addition of 10%v/v aqueous formic acid (20 μL) and analysed by LC–MS using an Agilent 1290 infinity II LC system comprising a 1290 infinity II multi-sampler and a 1290 infinity II high speed pump connected to an Agilent 6550 accurate mass iFunnel quadrupole time-of-flight (QTOF) mass spectrometer. Samples (6 μL) were injected onto a 2.1 × 50 mm, 1.8 μm ZORBAX RRHD Eclipse Plus C18 column equipped with a UHPLC guard column (Agilent; flow rate: 0.2 mL min^−1). […] Acquired data were analysed using Agilent MassHunter Qualitative Analysis (version B.07.00).
Tris buffer, cofactor and BRD4_511–550 stock solutions were prepared using ^18OH2 (CK Isotopes) and JMJD6 was buffer exchanged into 50 mM Tris (pH 7.5) in ^18OH2. The enzyme reactions were incubated under an ambient atmosphere at room temperature for 24 h, after which the reactions were stopped by the addition of 10%v/v aqueous formic acid (20 μL) and analysed by LC–MS as described above.

Take “LAELQEQLKAVHEQLAALSQPQQNKPKKKEKDKKEKKKEK [BRD4_511–550, 40-mer peptide fragment derived from human BRD4, JMJD6 substrate, prepared by SPPS]”: where the note is “16O2 atmosphere in 18OH2, JMJD6 2 μM”, the “incorporated oxygen in 18OH2” value is recorded as “complete incorporation of ^16O from atmospheric O2”. Besides, the “mass shifts / origin of incorporated oxygen under 18O2” value (18O2 atmosphere in H2O, JMJD6 2 μM) is given as “successive +18 Da shifts; also recorded: originates, at least, predominantly from ^18O2; also recorded: originate predominantly from atmospheric O2”.
